# Measurements from patent US20240385182A1, “MASKED FLUOROGENIC LIPID COMPOUNDS, LIPID PARTICLES COMPRISING THE SAME, AND METHODS OF USE THEREOF” (Rutgers, The State University of New Jersey, priority 2023, published 2024).
# Key:
# [1] = Photophysical characterization of probes and uncaged forms (relative fluorescence quantum yield, extinction coefficient, brightness); assay type: physicochemical; details: for Brightness: in M⁻¹·cm⁻¹ (unit assumed)
# Procedure: (§1) The pKa of TEG-TC was determined to be 7.1±0.1 using UV-Vis spectrophotometric measurements. Under the confocal imaging conditions (pH 7.5-8.5 with cell-free assays, pH 7.4 with cells), a substantial population of the 7-hydroxycoumarin should exist in its aryloxide form. The change in coumarin fluorogenicity was assessed upon uncaging the probes from the oxobutylphenyl carbonate by measuring the relative fluorescence quantum yield (ΦFrel) values (Table 2). Coumarin 343 was used as a standard, which has an absolute fluorescence quantum yield ([…]) of 0.63 in ethanol. The ΦFrel values of TEG-TC-ONOO^− (entry 1) and DPPC-TC-ONOO^− (entry 3) were measured as 0.08 and 0.09, respectively. […] The ΦFrel values for TEG-TC (entry 2) and DPPC-TC (entry 4), which were synthesized independently, were measured as 0.66 and 0.64, respectively.
# Next, the impact of caging and uncaging of the coumarin or fluorescein moieties on their fluorogenicity was assessed by measuring the relative fluorescence quantum yield (ΦFrel) values (Table 3). Coumarin 343 was used as the standard for measuring ΦFrel of the triazole-coumarin compounds (TEG-TC-H2S, TEG-TC, DPPC-TC-H2S, and DPPC-TC) whereas fluorescein for the triazole-fluorescein compounds (TEG-TF-H2O2, TEG-TF, and DPPC-TF-H2O2, and DPPC-TF). Relative to coumarin 343, whose absolute fluorescence quantum yield (ΦF) is 0.63 in ethanol, ΦFrels of the H2S probes TEG-TC-H2S (entry 1) and DPPC-TC-H2S (entry 3) were determined to be 0.07 and 0.03, respectively.
# (§2) The pKa of TEG-TC was previously found to be to be 7.1±0.1 using UV-Vis spectrophotometric measurements. Under the fluorescence activation assay conditions that are employed here (Tris 50 mM, pH 7.5), a substantial population of the coumarin moiety is expected to be in its aryloxide anion form. Relative to fluorescein, whose ΦF is 0.79 in ethanol, ΦFrel values of the H2O2 probes TEG-TF-H2O2 (entry 5) and DPPC-TF-H2O2 (entry 7) were determined to be 0.04 and 0.02, respectively.
# [2] = Confocal imaging of H2O2-sensing giant vesicles
# From the text: FIGS. 14A-14B: giant vesicles (GVs) that can sense reductive (FIG. 14A) or oxidative (FIG. 14B) environments. Confocal images acquired for H2S-sensing GV at 405/475 nm (ex/em) (FIG. 14A) and H2O2 sensing GV at 490/520 nm (ex/em) (FIG. 14B). Lipid compositions of GVs: POPC, POPG, cholesterol, and DPPC-TC-H2S (48:21:30:1 molar ratio; FIG. 14A); and POPC, POPG, cholesterol, and DPPC-TF-H2O2 (48.5:21:30:0.5; FIG. 14B). To label vesicle membranes, Liss-Rhod PE dye (563/580 nm) was introduced to the lipid mixture at an insignificant molar ratio (0.1 mol %). Concentrations of RSS and ROS were set to 500 and 100 μM, respectively. Scale bar=5 μm.
# The redox sensing abilities of giant vesicles (GVs) comprising DPPC-TC-H2S or DPPC-TF-H2O2 were investigated. In most biomimetic systems that rely on compartmentalization, physical membrane boundaries are comprised of phospholipids and cholesterol. These lipid self-assemblies have dimensional properties (1-30 μm in diameter) relevant to those of a mammalian plasma membrane (10-100 μm), display physical characteristics feasible for confocal fluorescence imaging, and are conveniently utilized for bottom-up construction of biomimetic protocells. […]
# The vesicle size distribution was analyzed by dynamic light scattering (DLS), confirming the presence of GVs. […]
# [3] = in ethanol; standard; cited from earlier work
# [4] = Fluorescence response of TEG-TC-ONOO^− to peroxynitrite in Tris buffer (plate reader)
# Procedure: FIG. 7A: time-dependent change in relative fluorescence intensities for probe TEG-TC-ONOO^− (1 μM) and compound TEG-TC (1 μM) in Tris (50 mM, pH 7.5) upon addition of ONOO^− (600 μM). Filled square: TEG-TC, hollow square: TEG-TC+ONOO^−, filled circle: TEG-TC-ONOO^−, and hollow circle: TEG-TC-ONOO^−+ONOO^−. Error bars represent standard deviation, n=3. FIG. 7B: relative fluorescence intensity (F) with respect to the background fluorescence intensity (F0) of TEG-TC-ONOO^− in the absence or presence of redox species. Probe TEG-TC-ONOO^− (1 μM) was dissolved in Tris buffer (50 mM, pH 7.5) and subjected to RNS and ROS (600 μM): ONOO^−, NO·, H2O2, HO·, ^1O2, and O·^−. Data represent FIFO measurements for samples incubated for 60 min. Plate reader was set to excitation at 405 nm and emission at 475 nm. Error bars represent standard deviation, n=3. The response rate and magnitude of TEG-TC-ONOO^− against ONOO^− was evaluated by measuring the relative fluorescence intensities of samples containing TEG-TC-ONOO^− and TEG-TC (positive control) at 405 nm excitation (FIG. 7A). These samples, prepared in Tris buffer (50 mM, pH 7.5), were measured over 60 minutes of incubation with and without ONOO^−. Physiologically normal ONOO^− production rate in cells has been estimated to be in the single-digit μM range, while reaching up to 100 μM under dysregulated conditions. Guided by this information, and in agreement with the fluorescence titration conditions employed for cytosolic resorufin-based peroxynitrite sensors, it was reasoned that administering 600 μM of ONOO^− into a pH 7.5 medium would provide a steady level of effective ONOO^− within a biologically relevant concentration range of […]. […] The difference in fluorescence between the peroxynitrite-treated and untreated samples reached up to 5-fold at the end of 60 minutes. During this time period, the relative fluorescence intensity of the sample containing TEG-TC-ONOO^− became ˜85% of that of the sample containing TEG-TC (positive control). This trend of increasing fluorescence output was mirrored in the level of conversion of TEG-TC-ONOO^− into TEG-TC based on UV-Vis spectrophotometric measurements. The peroxynitrite-specificity of the probe design was assessed by subjecting TEG-TC-ONOO^− to other redox species, including NO·, hydrogen peroxide (H2O2), singlet oxygen (^1O2), hydroxyl radicals (HO·), and O2·^− (FIG. 7B). Change in fluorescence intensity following excitation at 405 nm was measured over 60 minutes of incubation of TEG-TC-ONOO^− with each species and presented based on the signal-to-background ratio F/F0, where F and F0 are defined as the fluorescence with and without the analyte. In the absence of a redox species, F/F0 for TEG-TC-ONOO^− increased only 13% (F/F0=1.13) over 60 minutes. Treatment of TEG-TC-ONOO^− with ONOO^− gave rise to ˜570% increase in fluorescence (F/F0=6.69).
# [5] = Peroxynitrite-specificity: TEG-TC-ONOO^− subjected to other redox species; details: for F/F0: 60 min
# Procedure: FIG. 7A: time-dependent change in relative fluorescence intensities for probe TEG-TC-ONOO^− (1 μM) and compound TEG-TC (1 μM) in Tris (50 mM, pH 7.5) upon addition of ONOO^− (600 μM). Filled square: TEG-TC, hollow square: TEG-TC+ONOO^−, filled circle: TEG-TC-ONOO^−, and hollow circle: TEG-TC-ONOO^−+ONOO^−. Error bars represent standard deviation, n=3. FIG. 7B: relative fluorescence intensity (F) with respect to the background fluorescence intensity (F0) of TEG-TC-ONOO^− in the absence or presence of redox species. Probe TEG-TC-ONOO^− (1 μM) was dissolved in Tris buffer (50 mM, pH 7.5) and subjected to RNS and ROS (600 μM): ONOO^−, NO·, H2O2, HO·, ^1O2, and O·^−. Data represent FIFO measurements for samples incubated for 60 min. Plate reader was set to excitation at 405 nm and emission at 475 nm. Error bars represent standard deviation, n=3. The peroxynitrite-specificity of the probe design was assessed by subjecting TEG-TC-ONOO^− to other redox species, including NO·, hydrogen peroxide (H2O2), singlet oxygen (^1O2), hydroxyl radicals (HO·), and O2·^− (FIG. 7B). Change in fluorescence intensity following excitation at 405 nm was measured over 60 minutes of incubation of TEG-TC-ONOO^− with each species and presented based on the signal-to-background ratio F/F0, where F and F0 are defined as the fluorescence with and without the analyte. In the absence of a redox species, F/F0 for TEG-TC-ONOO^− increased only 13% (F/F0=1.13) over 60 minutes. Treatment of TEG-TC-ONOO^− with ONOO^− gave rise to ˜570% increase in fluorescence (F/F0=6.69). […] NO·, a free radical RNS that serves as a signaling molecule in cells, had essentially no effect on fluorescence intensity (F/F0=1.03).
# [6] = system: HeLa and RAW 264.7 cells; assay: Subcellular localization of non-amphiphilic probes in cells treated directly; assay type: cell-based; details: 20 minutes, TEG-TC-ONOO− cells then stimulated
# Procedure: Therefore, cells were treated with TEG-TC (positive control) or TEG-TC-ONOO− directly and incubated for 20 minutes. Those treated with TEG-TC-ONOO− were then stimulated via the methods described above. […] In the case of RAW 264.7 cells, the intracellular homogeneity of the signal was especially substantial.
# [7] = pKa by UV-Vis spectrophotometric measurements; assay type: physicochemical
# Procedure: as §1, §2
compound,measurement,setting,value
CCCCCCCCCCCCCCCC(=O)OCC(COP(=O)([O-])OCC[N+](C)(C)Cc1cn(-c2ccc3c(c2)C(=O)OC32c3ccc(OC(=O)OCc4ccc(B5OC(C)(C)C(C)(C)O5)cc4)cc3Oc3cc(OC(=O)OCc4ccc(B5OC(C)(C)C(C)(C)O5)cc4)ccc32)nn1)OC(=O)CCCCCCCCCCCCCCC (racemic) [DPPC-TF-H2O2],Emmax,[1],519.5 nm
same,Exmax,[1],495.2 nm
same,Ext. Coeff.,[1],10685 M⁻¹ cm⁻¹
same,Relative Brightness,"[1]; Table 3, brightness compared to that of DPPC-TF-H2O2",1.0
same,Brightness,[1],214
same,Quantum Yield (relative fluorescence quantum yield ΦFrel),[1]; standard fluorescein,0.02
same,GV fluorescence at the membrane,"[2]; GVs with POPC, POPG, cholesterol, H2O2 (100 PM) over 90 min",substantial fluorescence increase
same,GV fluorescence intensities,"[2]; equimolar other ROS (NO, ·OH, O2·^−)",comparable to those for the untreated GVs
O=C(O)c1cc2cc3c4c(c2oc1=O)CCCN4CCC3 [Coumarin 343],absolute fluorescence quantum yield (ΦF),[3],0.63
O=C(Oc1ccc(CCC(=O)C(F)(F)F)cc1)Oc1ccc2cc(-n3cc(COCCOCCOCCO)nn3)c(=O)oc2c1 [TEG-TC-ONOO^−],Emmax,[1],472.0 nm
same,Exmax,[1],400.0 nm
same,Ext. Coeff.,[1],4475 M⁻¹ cm⁻¹
same,Relative Brightness,"[1]; Table 2, DPPC-TC-ONOO^− = 1.0",1.4
same,Brightness,[1],358
same,Quantum Yield (relative fluorescence quantum yield ΦFrel),[1]; standard coumarin 343,0.08
same,F/F0,"[4]; ONOO^− 600 μM, 60 min, 405/475 nm",6.69
same,difference in fluorescence between peroxynitrite-treated and untreated samples,"[4]; ONOO^− (600 PM), Tris 50 mM pH 7.5, end of 60 minutes",up to 5 fold
same,relative fluorescence intensity as % of that of TEG-TC (positive control),"[4]; ONOO^− treated, 60 minutes",~85%
same,F/F0,"[4]; absence of a redox species, 60 minutes, 405 nm excitation",1.13
same,increase in F/F0,"[4]; absence of a redox species, over 60 minutes",13%
same,fluorescence compared to the sample untreated,"[4]; probe 1 μM, ONOO^− (600 PM), Tris 50 mM pH 7.5, within the first 10 minutes",~3 fold
same,increase in fluorescence,"[4]; treatment with ONOO^−, 60 min",~570%
same,relative fluorescence enhancement for ONOO^− compared to the other RNS and ROS,[5],~36 fold
same,F/F0,[5]; H2O2 600 μM,1.16
same,fluorescence intensity stronger than background,"[5]; H2O2, 60 min",16%
same,F/F0,[5]; NO· 600 μM,1.03
same,subcellular distribution of signal,[6],"throughout the cells, including the nucleus"
O=c1oc2cc(O)ccc2cc1-n1cc(COCCOCCOCCO)nn1 [TEG-TC],pKa,[7],7.1±0.1
same,Emmax,[1],471.4 nm
same,Exmax,[1],397.0 nm
same,Ext. Coeff.,[1],15613 M⁻¹ cm⁻¹
same,"enhanced brightness, uncaging product vs caged probe",[1],28 fold
same,Relative Brightness,"[1]; Table 2, DPPC-TC-ONOO^− = 1.0",41.1
same,Relative Brightness,"[1]; Table 3, brightness compared to that of DPPC-TC-H2S",143.2
same,Brightness,[1],10305
same,Quantum Yield (relative fluorescence quantum yield ΦFrel),[1]; standard coumarin 343,0.66
same,subcellular distribution of signal,[6],"throughout the cells, including the nucleus"
